Test results as given in PubChem BioAssay (NCI).
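Method: 48-hour compound exposure of cells in 96-well plates, five concentrations, linear interpolation of endpoints. At the TGI there is no net growth.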

Tests used:
Test in all cases: NCI tumour cell line growth inhibition, 48 h
OVCAR-8 ovarian = system: OVCAR-8 ovarian
CAKI-1 renal = system: CAKI-1 renal
CCRF-CEM leukemia = system: CCRF-CEM leukemia
SNB-19 CNS = system: SNB-19 CNS
786-0 renal = system: 786-0 renal
HT29 colon = system: HT29 colon
LXFL 529 NSCLC = system: LXFL 529 NSCLC
A549 NSCLC = system: A549 NSCLC
SF-295 CNS = system: SF-295 CNS
EKVX NSCLC = system: EKVX NSCLC
M19-MEL melanoma = system: M19-MEL melanoma
SR leukemia = system: SR leukemia
HOP-62 NSCLC = system: HOP-62 NSCLC
COLO 205 colon = system: COLO 205 colon
SN12C renal = system: SN12C renal
DLD-1 colon = system: DLD-1 colon
XF 498 CNS = system: XF 498 CNS
RXF-631 renal = system: RXF-631 renal
HL-60(TB) leukemia = system: HL-60(TB) leukemia
RXF 393 renal = system: RXF 393 renal
NCI-H460 lung = system: NCI-H460 lung
SK-MEL-5 melanoma = system: SK-MEL-5 melanoma
KM12 colon = system: KM12 colon
OVCAR-3 ovarian = system: OVCAR-3 ovarian
SF-539 CNS = system: SF-539 CNS
HOP-18 NSCLC = system: HOP-18 NSCLC
SNB-75 CNS = system: SNB-75 CNS
TK-10 renal = system: TK-10 renal
UO-31 renal = system: UO-31 renal
RPMI-8226 leukemia = system: RPMI-8226 leukemia
SK-MEL-2 melanoma = system: SK-MEL-2 melanoma
SK-MEL-28 melanoma = system: SK-MEL-28 melanoma
UACC-62 melanoma = system: UACC-62 melanoma
DMS 114 small cell lung = system: DMS 114 small cell lung
DMS 273 small cell lung = system: DMS 273 small cell lung
HOP-92 NSCLC = system: HOP-92 NSCLC
SK-OV-3 ovarian = system: SK-OV-3 ovarian
OVCAR-4 ovarian = system: OVCAR-4 ovarian
SW-620 colon = system: SW-620 colon
MOLT-4 leukemia = system: MOLT-4 leukemia
NCI-H23 lung = system: NCI-H23 lung
IGROV1 ovarian = system: IGROV1 ovarian
A498 renal = system: A498 renal
HCT-116 colon = system: HCT-116 colon
KM20L2 colon = system: KM20L2 colon
OVCAR-5 ovarian = system: OVCAR-5 ovarian
MALME-3M melanoma = system: MALME-3M melanoma
UACC-257 melanoma = system: UACC-257 melanoma
SF-268 CNS = system: SF-268 CNS
ACHN renal = system: ACHN renal
LOX IMVI melanoma = system: LOX IMVI melanoma
M14 melanoma = system: M14 melanoma
U251 CNS = system: U251 CNS
K-562 leukemia = system: K-562 leukemia
HCC-2998 colon = system: HCC-2998 colon
HCT-15 colon = system: HCT-15 colon
SNB-78 CNS = system: SNB-78 CNS
BT-549 breast = system: BT-549 breast
HS 578T breast = system: HS 578T breast
DU-145 prostate = system: DU-145 prostate
PC-3 prostate = system: PC-3 prostate
T-47D breast = system: T-47D breast
NCI-H522 lung = system: NCI-H522 lung
MDA-MB-231 breast = system: MDA-MB-231 breast
NCI-H226 lung = system: NCI-H226 lung
MDA-N = system: MDA-N
MDA-MB-435 = system: MDA-MB-435
NCI/ADR-RES ovarian = system: NCI/ADR-RES ovarian
MCF7 breast = system: MCF7 breast
P388 leukemia = system: P388 leukemia
P388/ADR leukemia = system: P388/ADR leukemia
SN12K1 renal = system: SN12K1 renal

CC12CC(Sc3ccccc3N1)c1ccccc1O2 (stereo unspecified)
TGI (OVCAR-8 ovarian): 33.3 µM | TGI (CAKI-1 renal): 42.4 µM | TGI (CCRF-CEM leukemia): 36.5 µM | TGI (SNB-19 CNS): 30 µM | TGI (786-0 renal): 31.6 µM | TGI (HT29 colon): 35 µM | TGI (LXFL 529 NSCLC): 28.4 µM | TGI (A549 NSCLC): 41.9 µM | TGI (SF-295 CNS): 29.8 µM | TGI (EKVX NSCLC): 33.4 µM | TGI (M19-MEL melanoma): 30.9 µM | TGI (SR leukemia): 58 µM | TGI (HOP-62 NSCLC): 38.4 µM | TGI (COLO 205 colon): 29.9 µM | TGI (SN12C renal): 36 µM | TGI (DLD-1 colon): 28.9 µM | TGI (XF 498 CNS): 30.2 µM | TGI (RXF-631 renal): 28.4 µM | TGI (HL-60(TB) leukemia): 28.8 µM | TGI (RXF 393 renal): 30.2 µM | TGI (NCI-H460 lung): 33.2 µM | TGI (SK-MEL-5 melanoma): 28 µM | TGI (KM12 colon): 28.6 µM | TGI (OVCAR-3 ovarian): 30.3 µM | TGI (SF-539 CNS): 32.5 µM | TGI (HOP-18 NSCLC): 31.6 µM | TGI (SNB-75 CNS): 53.3 µM | TGI (TK-10 renal): 51.4 µM | TGI (UO-31 renal): 27.4 µM | TGI (RPMI-8226 leukemia): 48 µM | TGI (SK-MEL-2 melanoma): 25.4 µM | TGI (SK-MEL-28 melanoma): 30.4 µM | TGI (UACC-62 melanoma): 30.7 µM | TGI (DMS 114 small cell lung): 29 µM | TGI (DMS 273 small cell lung): 30.2 µM | TGI (HOP-92 NSCLC): 35.2 µM | TGI (SK-OV-3 ovarian): 58.4 µM | TGI (OVCAR-4 ovarian): 31.2 µM | TGI (SW-620 colon): 31.8 µM | TGI (MOLT-4 leukemia): 44.6 µM | TGI (NCI-H23 lung): 29.8 µM | TGI (IGROV1 ovarian): 48.6 µM | TGI (A498 renal): 33 µM | TGI (HCT-116 colon): 29.2 µM | TGI (KM20L2 colon): 34.6 µM | TGI (OVCAR-5 ovarian): 33.3 µM | TGI (MALME-3M melanoma): 30.1 µM | TGI (UACC-257 melanoma): 27.8 µM | TGI (SF-268 CNS): 30.4 µM | TGI (ACHN renal): 31 µM | TGI (LOX IMVI melanoma): 27 µM | TGI (M14 melanoma): 37.6 µM | TGI (U251 CNS): 26 µM | TGI (K-562 leukemia): 40.2 µM | TGI (HCC-2998 colon): 31 µM | TGI (HCT-15 colon): 29.2 µM | TGI (SNB-78 CNS): 42.6 µM

CCN(CC)CCNC(=O)c1nn(-c2ccc(Cl)cc2)c2c1CCc1cc(OC)ccc1-2
TGI (OVCAR-8 ovarian): 28.2 µM | TGI (CAKI-1 renal): 19.9 µM | TGI (CCRF-CEM leukemia): 20.1 µM | TGI (SNB-19 CNS): 23.2 µM | TGI (786-0 renal): 12 µM | TGI (HT29 colon): 6.7 µM | TGI (LXFL 529 NSCLC): 16.4 µM | TGI (A549 NSCLC): 21.3 µM | TGI (BT-549 breast): 32.1 µM | TGI (SF-295 CNS): 7.37 µM | TGI (EKVX NSCLC): 23.4 µM | TGI (HS 578T breast): 13.8 µM | TGI (M19-MEL melanoma): 7.11 µM | TGI (DU-145 prostate): 29.1 µM | TGI (SR leukemia): 22 µM | TGI (PC-3 prostate): 26.3 µM | TGI (HOP-62 NSCLC): 29.2 µM | TGI (COLO 205 colon): 6.42 µM | TGI (SN12C renal): 24.2 µM | TGI (T-47D breast): 21 µM | TGI (DLD-1 colon): 14.2 µM | TGI (XF 498 CNS): 17.6 µM | TGI (RXF-631 renal): 3.16 µM | TGI (HL-60(TB) leukemia): 14.5 µM | TGI (RXF 393 renal): 8.99 µM | TGI (NCI-H460 lung): 11.8 µM | TGI (SK-MEL-5 melanoma): 3.17 µM | TGI (KM12 colon): 19.5 µM | TGI (OVCAR-3 ovarian): 20.6 µM | TGI (SF-539 CNS): 13.4 µM | TGI (HOP-18 NSCLC): 28.7 µM | TGI (SNB-75 CNS): 14.5 µM | TGI (TK-10 renal): 23.8 µM | TGI (NCI-H522 lung): 11 µM | TGI (UO-31 renal): 9.24 µM | TGI (RPMI-8226 leukemia): 8.72 µM | TGI (MDA-MB-231 breast): 24.5 µM | TGI (SK-MEL-2 melanoma): 3.18 µM | TGI (SK-MEL-28 melanoma): 4.23 µM | TGI (UACC-62 melanoma): 7.58 µM | TGI (DMS 114 small cell lung): 6.68 µM | TGI (DMS 273 small cell lung): 5.98 µM | TGI (HOP-92 NSCLC): 15.8 µM | TGI (SK-OV-3 ovarian): 27.5 µM | TGI (OVCAR-4 ovarian): 21.9 µM | TGI (NCI-H226 lung): 24.2 µM | TGI (SW-620 colon): 7.59 µM | TGI (MOLT-4 leukemia): 28.5 µM | TGI (NCI-H23 lung): 25.8 µM | TGI (MDA-N): 10.2 µM | TGI (IGROV1 ovarian): 26.6 µM | TGI (A498 renal): 21.9 µM | TGI (HCT-116 colon): 13.3 µM | TGI (KM20L2 colon): 3.32 µM | TGI (OVCAR-5 ovarian): 15 µM | TGI (MALME-3M melanoma): 2.95 µM | TGI (UACC-257 melanoma): 3.57 µM | TGI (SF-268 CNS): 22.2 µM | TGI (ACHN renal): 23.7 µM | TGI (LOX IMVI melanoma): 4.11 µM | TGI (M14 melanoma): 5.86 µM | TGI (MDA-MB-435): 23.6 µM | TGI (U251 CNS): 17.8 µM | TGI (K-562 leukemia): 11.1 µM | TGI (HCC-2998 colon): 5.52 µM | TGI (HCT-15 colon): 7.81 µM | TGI (SNB-78 CNS): 24.2 µM

COC(=O)C1C(O)C(C)C(O)OC1C(C)C(O)C(C)/C=C\C=C(/C)C(=O)Nc1c(C)c(OC(C)=O)c2c(c1O)C(=O)C(C)=C1OCOC(/C(C)=C/C(C)=O)=C12 (stereo unspecified)
TGI (NCI/ADR-RES ovarian): 30.5 µM | TGI (OVCAR-8 ovarian): 30.7 µM | TGI (CAKI-1 renal): 34 µM | TGI (CCRF-CEM leukemia): 34.4 µM | TGI (SNB-19 CNS): 30.9 µM | TGI (HT29 colon): 26.5 µM | TGI (A549 NSCLC): 35.3 µM | TGI (SF-295 CNS): 26 µM | TGI (EKVX NSCLC): 20.5 µM | TGI (M19-MEL melanoma): 26 µM | TGI (HOP-62 NSCLC): 23.5 µM | TGI (MCF7 breast): 26.8 µM | TGI (COLO 205 colon): 20.6 µM | TGI (SN12C renal): 21.5 µM | TGI (DLD-1 colon): 19.4 µM | TGI (XF 498 CNS): 24.6 µM | TGI (HL-60(TB) leukemia): 15.3 µM | TGI (RXF 393 renal): 24.8 µM | TGI (P388 leukemia): 12.4 µM | TGI (NCI-H460 lung): 26.5 µM | TGI (P388/ADR leukemia): 39.4 µM | TGI (SK-MEL-5 melanoma): 23.5 µM | TGI (KM12 colon): 26.5 µM | TGI (OVCAR-3 ovarian): 20.5 µM | TGI (SF-539 CNS): 23.7 µM | TGI (HOP-18 NSCLC): 28.7 µM | TGI (SNB-75 CNS): 29.1 µM | TGI (NCI-H522 lung): 7.74 µM | TGI (UO-31 renal): 25.1 µM | TGI (RPMI-8226 leukemia): 28.2 µM | TGI (SK-MEL-2 melanoma): 20.9 µM | TGI (SK-MEL-28 melanoma): 4.96 µM | TGI (UACC-62 melanoma): 31.1 µM | TGI (DMS 114 small cell lung): 27.5 µM | TGI (DMS 273 small cell lung): 25 µM | TGI (HOP-92 NSCLC): 22.3 µM | TGI (SK-OV-3 ovarian): 40.2 µM | TGI (OVCAR-4 ovarian): 23 µM | TGI (NCI-H226 lung): 23.4 µM | TGI (SW-620 colon): 20.4 µM | TGI (MOLT-4 leukemia): 33.3 µM | TGI (NCI-H23 lung): 27.8 µM | TGI (SN12K1 renal): 25.6 µM | TGI (IGROV1 ovarian): 26.5 µM | TGI (A498 renal): 30.6 µM | TGI (HCT-116 colon): 19.9 µM | TGI (KM20L2 colon): 24.4 µM | TGI (OVCAR-5 ovarian): 25 µM | TGI (MALME-3M melanoma): 24.8 µM | TGI (UACC-257 melanoma): 23.7 µM | TGI (SF-268 CNS): 33.1 µM | TGI (LOX IMVI melanoma): 26.6 µM | TGI (U251 CNS): 27.7 µM | TGI (K-562 leukemia): 51.1 µM | TGI (HCC-2998 colon): 26.3 µM | TGI (HCT-15 colon): 29 µM | TGI (SNB-78 CNS): 24.9 µM
